The results in this text go back to patent US11492385B2, “Long-acting co-agonists of the glucagon and GLP-1 receptors” (Merck Sharp & Dohme Corp., priority 2015, dated 2022).

One test concerns the target T1, human GCGR (Homo sapiens, UniProt P47871).
T1 construct: expressed in transfected cells; kept under Blasticidin and Hygromycin selection
Description: cAMP activity assay, cells expressing human GCGR. It is filed as cell-based. As to conditions: for EC50: cAMP production, cells expressing human GCGR, assay buffer with or without 20% human serum (not stated which), read-out: GCGR EC50 human; for hGCGR/hGLP1R (hTone): ratio of human GCGR EC50 to human GLP1R EC50. An outline of the steps: (§1)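 cAMP production in human GLP1R- or GCGR-expressing cells was read by luminescence after overnight dark incubation at room temperature. Peptides were given as 10-point DMSO dilution series, with native GLP-1 and glucagon as references. Four-parameter logistic fitting gave EC50.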
Background: Cyclic AMP is a second messenger, typically raised through Gs and lowered through Gi signalling.

For a further test, the target named is T2, human GLP1R (Homo sapiens, UniProt P43220).
T2 construct: expressed in transfected cells; kept under Blasticidin and Hygromycin selection
The test is described as follows: cAMP activity assay, cells expressing human GLP1R. The class given is cell-based. The note with it: cAMP production, assay buffer with or without 20% human serum (not stated which). An outline of the steps:
as §1

Starred links: 1 amine or outer side, 2 acyl side, 3 side chain; linkers in the order of their positions; H or OH if unused. Non-standard residues stand in square brackets, D forms with d. Residues, ends and D or L forms follow the SMILES beside them. Groups on a side chain read outwards from the residue. *: point of attachment. Phe(4-CH2NH2) = NCc1ccc(C[C@H](N)C(=O)O)cc1; C18 diacid = O=C(O)CCCCCCCCCCCCCCCCC(=O)*; C16 diacid = O=C(O)CCCCCCCCCCCCCCC(=O)*; γGlu = O=C(O)[C@H](CCC(=O)[*:2])N[*:1]; Met(O2) = CS(=O)(=O)CC[C@H](N)C(=O)O; αMeD = C[C@](N)(CC(=O)O)C(=O)O; AEEA = NCCOCCOCC(=O)O; Aib = CC(C)(N)C(=O)O

T1 sequence (P47871 26-477): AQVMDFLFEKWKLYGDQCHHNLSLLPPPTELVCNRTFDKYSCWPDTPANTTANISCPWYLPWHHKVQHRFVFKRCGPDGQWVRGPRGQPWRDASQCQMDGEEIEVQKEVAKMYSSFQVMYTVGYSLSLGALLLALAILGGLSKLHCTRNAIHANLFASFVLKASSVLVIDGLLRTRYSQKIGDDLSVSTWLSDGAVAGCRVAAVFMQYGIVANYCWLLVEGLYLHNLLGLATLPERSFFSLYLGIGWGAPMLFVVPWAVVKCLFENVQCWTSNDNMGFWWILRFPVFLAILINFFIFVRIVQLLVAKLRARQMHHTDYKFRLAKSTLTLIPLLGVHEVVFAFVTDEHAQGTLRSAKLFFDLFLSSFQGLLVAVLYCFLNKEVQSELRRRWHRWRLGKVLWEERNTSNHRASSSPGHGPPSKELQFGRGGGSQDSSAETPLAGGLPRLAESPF
T2 sequence (P43220 24-463): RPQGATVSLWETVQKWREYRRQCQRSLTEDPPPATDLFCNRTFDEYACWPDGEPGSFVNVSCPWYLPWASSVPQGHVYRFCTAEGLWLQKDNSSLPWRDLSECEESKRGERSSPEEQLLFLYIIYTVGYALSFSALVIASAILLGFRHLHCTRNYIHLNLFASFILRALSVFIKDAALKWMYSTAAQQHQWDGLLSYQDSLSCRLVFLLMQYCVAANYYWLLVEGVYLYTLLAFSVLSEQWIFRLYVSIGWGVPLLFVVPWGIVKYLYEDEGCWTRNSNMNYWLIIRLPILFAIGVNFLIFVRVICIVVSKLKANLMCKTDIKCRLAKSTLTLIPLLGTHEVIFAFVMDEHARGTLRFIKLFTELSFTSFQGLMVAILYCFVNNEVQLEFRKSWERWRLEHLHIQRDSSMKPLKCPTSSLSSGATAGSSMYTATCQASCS

By EC50 is commonly meant the concentration at which the effect is half-maximal. On to `CC(C)C[C@H](NC(=O)[C@H](Cc1ccc(O)cc1)NC(=O)[C@H](CCCCN)NC(=O)[C@H](CO)NC(=O)[C@H](Cc1ccc(O)cc1)NC(=O)[C@H](CC(=O)O)NC(=O)[C@H](CO)NC(=O)[C@@H](NC(=O)[C@H](Cc1ccccc1)NC(=O)[C@@H](NC(=O)CNC(=O)[C@H](CCC(N)=O)NC(=O)C(C)(C)NC(=O)[C@@H](N)Cc1c[nH]cn1)[C@@H](C)O)[C@@H](C)O)C(=O)N[C@@H](CC(=O)O)C(=O)N[C@@H](C)C(=O)N[C@@H](CCCNC(=N)N)C(=O)N[C@@H](C)C(=O)N[C@@H](C)C(=O)N[C@@H](CCC(N)=O)C(=O)N[C@@H](Cc1ccc(CNC(=O)COCCOCCNC(=O)COCCOCCNC(=O)CC[C@H](NC(=O)CCCCCCCCCCCCCCCCC(=O)O)C(=O)O)cc1)C(=O)N[C@@H](Cc1ccccc1)C(=O)N[C@H](C(=O)N[C@@H](CCC(N)=O)C(=O)N[C@@H](Cc1c[nH]c2ccccc12)C(=O)N[C@@H](CC(C)C)C(=O)N[C@@H](CC(C)C)C(=O)N[C@@](C)(CC(=O)O)C(=O)N[C@H](C(N)=O)[C@@H](C)O)C(C)C` [compound 75] (H-H[Aib]QGTFTSDYSKYLDARAAQ[Phe(4-CH2NH2)]([AEEA-AEEA-γGlu-C18 diacid])FVQWLL[αMeD]T-NH2), for which the half-maximal effective concentration (EC50) on human GCGR came out at 360 pM; at human GLP1R, 420 pM. For the same compound, the “hGCGR/hGLP1R (hTone)” value on human GCGR was 0.9.

Take `CC(C)C[C@H](NC(=O)[C@H](Cc1ccc(O)cc1)NC(=O)[C@H](CCCCN)NC(=O)[C@H](CO)NC(=O)[C@H](Cc1ccc(O)cc1)NC(=O)[C@H](CC(=O)O)NC(=O)[C@H](CO)NC(=O)[C@@H](NC(=O)[C@H](Cc1ccccc1)NC(=O)[C@@H](NC(=O)CNC(=O)[C@H](CCC(N)=O)NC(=O)C(C)(C)NC(=O)[C@@H](N)Cc1c[nH]cn1)[C@@H](C)O)[C@@H](C)O)C(=O)N[C@@H](CC(=O)O)C(=O)N[C@@H](C)C(=O)N[C@@H](CCCNC(=N)N)C(=O)N[C@@H](C)C(=O)N[C@@H](C)C(=O)N[C@@H](CCC(N)=O)C(=O)N[C@@H](CCCCNC(=O)COCCOCCNC(=O)COCCOCCNC(=O)CC[C@H](NC(=O)CCCCCCCCCCCCCCCCC(=O)O)C(=O)O)C(=O)N[C@@H](Cc1ccccc1)C(=O)N[C@H](C(=O)N[C@@H](CCC(N)=O)C(=O)N[C@@H](Cc1c[nH]c2ccccc12)C(=O)N[C@@H](CC(C)C)C(=O)N[C@@H](CCS(C)(=O)=O)C(=O)N[C@@H](CC(=O)O)C(=O)N[C@H](C(N)=O)[C@@H](C)O)C(C)C` [compound 30] (H-H[Aib]QGTFTSDYSKYLDARAAQK([AEEA-AEEA-γGlu-C18 diacid])FVQWL[Met(O2)]DT-NH2): at human GCGR, the EC50 was determined as 100 pM and the “hGCGR/hGLP1R (hTone)” value is listed as 1.66. This compound also showed an EC50 on human GLP1R of 60 pM.

With `CC(C)C[C@H](NC(=O)[C@H](Cc1ccc(O)cc1)NC(=O)[C@H](CCCCN)NC(=O)[C@H](CO)NC(=O)[C@H](Cc1ccc(O)cc1)NC(=O)[C@H](CC(=O)O)NC(=O)[C@H](CO)NC(=O)[C@@H](NC(=O)[C@H](Cc1ccccc1)NC(=O)[C@@H](NC(=O)CNC(=O)[C@H](CCC(N)=O)NC(=O)C(C)(C)NC(=O)[C@@H](N)Cc1c[nH]cn1)[C@@H](C)O)[C@@H](C)O)C(=O)N[C@@H](CC(=O)O)C(=O)N[C@@H](C)C(=O)N[C@@H](CCCNC(=N)N)C(=O)N[C@@H](C)C(=O)N[C@@H](C)C(=O)N[C@@H](CCCCNC(=O)COCCOCCNC(=O)COCCOCCNC(=O)CC[C@H](NC(=O)CCCCCCCCCCCCCCC(=O)O)C(=O)O)C(=O)N[C@@](C)(CC(=O)O)C(=O)N[C@@H](Cc1ccccc1)C(=O)N[C@H](C(=O)N[C@@H](CCC(N)=O)C(=O)N[C@@H](Cc1c[nH]c2ccccc12)C(=O)N[C@@H](CC(C)C)C(=O)N[C@@H](CCS(C)(=O)=O)C(=O)N[C@@H](CC(=O)O)C(=O)N[C@H](C(N)=O)[C@@H](C)O)C(C)C` [compound 42] (H-H[Aib]QGTFTSDYSKYLDARAAK([AEEA-AEEA-γGlu-C16 diacid])[αMeD]FVQWL[Met(O2)]DT-NH2), at human GCGR, the EC50 is 130 pM and the “hGCGR/hGLP1R (hTone)” value is 3.21. On human GLP1R, this compound had an EC50 of 40 pM.

For `CC(C)C[C@H](NC(=O)[C@H](Cc1ccc(O)cc1)NC(=O)[C@H](CCCCN)NC(=O)[C@H](CO)NC(=O)[C@H](Cc1ccc(O)cc1)NC(=O)[C@H](CC(=O)O)NC(=O)[C@H](CO)NC(=O)[C@@H](NC(=O)[C@H](Cc1ccccc1)NC(=O)[C@@H](NC(=O)CNC(=O)[C@H](CCC(N)=O)NC(=O)[C@@H](CO)NC(=O)[C@@H](N)Cc1c[nH]cn1)[C@@H](C)O)[C@@H](C)O)C(=O)N[C@@H](CC(=O)O)C(=O)N[C@@H](C)C(=O)N[C@@H](CCCNC(=N)N)C(=O)N[C@@H](C)C(=O)N[C@@H](C)C(=O)N[C@@H](CCCCNC(=O)COCCOCCNC(=O)COCCOCCNC(=O)CC[C@H](NC(=O)CCCCCCCCCCCCCCC(=O)O)C(=O)O)C(=O)N[C@@H](CC(=O)O)C(=O)N[C@@H](Cc1ccccc1)C(=O)N[C@H](C(=O)N[C@@H](CCC(N)=O)C(=O)N[C@@H](Cc1c[nH]c2ccccc12)C(=O)N[C@@H](CC(C)C)C(=O)N[C@@H](CCS(C)(=O)=O)C(=O)N[C@@H](CC(=O)O)C(=O)N[C@H](C(N)=O)[C@@H](C)O)C(C)C` [compound 14] (H-H[dS]QGTFTSDYSKYLDARAAK([AEEA-AEEA-γGlu-C16 diacid])DFVQWL[Met(O2)]DT-NH2), on human GCGR, the half-maximal effective concentration (EC50) is 40 pM and the “hGCGR/hGLP1R (hTone)” value came out at 0.03. At human GLP1R, this compound showed an EC50 of 1130 pM.

Turning to `CC(C)C[C@H](NC(=O)[C@H](Cc1ccc(O)cc1)NC(=O)[C@H](CCCCN)NC(=O)[C@H](CO)NC(=O)[C@H](Cc1ccc(CNC(=O)COCCOCCNC(=O)COCCOCCNC(=O)CC[C@H](NC(=O)CCCCCCCCCCCCCCCCC(=O)O)C(=O)O)cc1)NC(=O)[C@H](CC(=O)O)NC(=O)[C@H](CO)NC(=O)[C@@H](NC(=O)[C@H](Cc1ccccc1)NC(=O)[C@@H](NC(=O)CNC(=O)[C@H](CCC(N)=O)NC(=O)C(C)(C)NC(=O)[C@@H](N)Cc1c[nH]cn1)[C@@H](C)O)[C@@H](C)O)C(=O)N[C@@H](CC(=O)O)C(=O)N[C@@H](C)C(=O)N[C@@H](CCCNC(=N)N)C(=O)N[C@@H](C)C(=O)N[C@@H](C)C(=O)N[C@@H](CCC(N)=O)C(=O)N[C@@H](CC(=O)O)C(=O)N[C@@H](Cc1ccccc1)C(=O)N[C@H](C(=O)N[C@@H](CCC(N)=O)C(=O)N[C@@H](Cc1c[nH]c2ccccc12)C(=O)N[C@@H](CC(C)C)C(=O)N[C@@H](CCS(C)(=O)=O)C(=O)N[C@@H](CC(=O)O)C(=O)N[C@H](C(N)=O)[C@@H](C)O)C(C)C` [compound 28] (H-H[Aib]QGTFTSD[Phe(4-CH2NH2)]([AEEA-AEEA-γGlu-C18 diacid])SKYLDARAAQDFVQWL[Met(O2)]DT-NH2), at human GCGR, the EC50 came to 430 pM and the “hGCGR/hGLP1R (hTone)” value is on record as 3.11. The compound also returned an EC50 at human GLP1R of 140 pM.
